Assay results taken from patent US20240360194A1, “New Peptides as Potent and Selective GIP Receptor Agonists” (Sanofi, priority 2021, published 2024).
≈ marks a conversion by molar mass, not a printed value. Numbered stars: 1 amine (or outer) side, 2 acyl side, 3 side chain; on linkers, the order of the positions; unused ones are H or OH. Square brackets hold non-standard residues; d marks the D form. Side chains are listed from the residue outwards. Ends that are not written are not given here. Peptide text beside a SMILES is read from it. * marks the point of attachment. ξ: configuration not given here. C18 diacid = O=C(O)CCCCCCCCCCCCCCCCC(=O)*; γGlu = O=C(O)[C@H](CCC(=O)[*:2])N[*:1]; tBuAla = CC(C)(C)C[C@H](N)C(=O)O; dIva = CC[C@@](C)(N)C(=O)O; ξIva = CCC(C)(N)C(=O)O; AEEA = NCCOCCOCC(=O)O; Aib = CC(C)(N)C(=O)O

T1: human GIP receptor (Homo sapiens, UniProt P48546)
T1 construct: human adipocytes endogenously expressing the human GIP receptor; host or cells: human preadipocytes (Lonza) differentiated to adipocytes
T1 sequence (P48546 22-466): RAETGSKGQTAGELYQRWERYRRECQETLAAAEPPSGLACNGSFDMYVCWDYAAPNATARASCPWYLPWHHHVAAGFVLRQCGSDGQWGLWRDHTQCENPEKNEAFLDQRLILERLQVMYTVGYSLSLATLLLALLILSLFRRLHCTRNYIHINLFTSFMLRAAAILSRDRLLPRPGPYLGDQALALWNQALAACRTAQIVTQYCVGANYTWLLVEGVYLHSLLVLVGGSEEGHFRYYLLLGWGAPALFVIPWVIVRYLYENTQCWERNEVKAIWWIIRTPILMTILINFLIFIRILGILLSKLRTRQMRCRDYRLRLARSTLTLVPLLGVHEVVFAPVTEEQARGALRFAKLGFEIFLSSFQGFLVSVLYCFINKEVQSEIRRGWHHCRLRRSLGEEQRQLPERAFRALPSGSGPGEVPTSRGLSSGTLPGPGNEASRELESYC

T2: human GIP receptor (hGIPR) (Homo sapiens, UniProt P48546)
T2 sequence (P48546 22-466): T1 sequence (P48546 22-466)

T3: human GIP receptor (human, UniProt P48546 22-466)
T3 sequence (looked up): T1 sequence (P48546 22-466)

B1: SEQ ID NO: 33 (peptide)
peptide: Y[Aib]EGTFISDLSI[Aib]K([AEEA-AEEA-γGlu-C18 diacid])DRIHQEEFIEWL[tBuAla]AQGPSSGAPPPS-NH2
modifications: N-terminus assumed
SMILES: CC[C@H](C)[C@H](NC(=O)[C@H](Cc1ccccc1)NC(=O)[C@H](CCC(=O)O)NC(=O)[C@H](CCC(=O)O)NC(=O)[C@H](CCC(N)=O)NC(=O)[C@H](Cc1c[nH]cn1)NC(=O)[C@@H](NC(=O)[C@H](CCCNC(=N)N)NC(=O)[C@H](CC(=O)O)NC(=O)[C@H](CCCCNC(=O)COCCOCCNC(=O)COCCOCCNC(=O)CC[C@H](NC(=O)CCCCCCCCCCCCCCCCC(=O)O)C(=O)O)NC(=O)C(C)(C)NC(=O)[C@@H](NC(=O)[C@H](CO)NC(=O)[C@H](CC(C)C)NC(=O)[C@H](CC(=O)O)NC(=O)[C@H](CO)NC(=O)[C@@H](NC(=O)[C@H](Cc1ccccc1)NC(=O)[C@@H](NC(=O)CNC(=O)[C@H](CCC(=O)O)NC(=O)C(C)(C)NC(=O)[C@@H](N)Cc1ccc(O)cc1)[C@@H](C)O)[C@@H](C)CC)[C@@H](C)CC)[C@@H](C)CC)C(=O)N[C@@H](CCC(=O)O)C(=O)N[C@@H](Cc1c[nH]c2ccccc12)C(=O)N[C@@H](CC(C)C)C(=O)N[C@@H](CC(C)(C)C)C(=O)N[C@@H](C)C(=O)N[C@@H](CCC(N)=O)C(=O)NCC(=O)N1CCC[C@H]1C(=O)N[C@@H](CO)C(=O)N[C@@H](CO)C(=O)NCC(=O)N[C@@H](C)C(=O)N1CCC[C@H]1C(=O)N1CCC[C@H]1C(=O)N1CCC[C@H]1C(=O)N[C@@H](CO)C(N)=O

Legend:
[1] = Solubility assessment (UHPLC-UV of supernatant, target 10 mg/ml); format: physicochemical; settings: pH 7.4, Soluble amount
Procedure: Prior to the solubility measurement of a peptide batch, its purity was determined through UHPLC/MS.
Therefore, solutions from solid samples were prepared in a buffer system with a concentration of 10 mg/ml compound based on the previously determined % purity: • Solubility buffer system A) 100 mM phosphate buffer pH 7.4 • Solubility buffer system B) 8 mM phosphate buffer pH 7.4, 14 mg/ml propylene glycol, 5.5 mg/ml phenol • Solubility buffer system C) 100 mM phosphate buffer pH 7.4, 2.7 mg/ml m-cresol
UHPLC-UV was performed after 1 h of gentle agitation and storage at 5° C. overnight (24 h) from the supernatant, which was obtained after 15 min of centrifugation at 2500 RCF (relative centrifugal acceleration).
The different UV extinction coefficients of sample and reference peptide were calculated based on the different amino acid sequences and considered in the concentration calculation.
The analytical method used was Analytical UHPLC Method A.
Peptide samples were prepared in solubility buffer system A or C and solubility was assessed as described in Methods.

[2] = molecular target: human GLP-1 receptor (hGLP-1R) (Homo sapiens, UniProt P43220); assay: In vitro cellular cAMP assay for GLP-1 receptor efficacy (HEK-293 cell line over-expressing receptor); format: cell-based; settings: HEK-293, 0.1% BSA
human GLP-1 receptor (hGLP-1R), sequence (P43220 24-463): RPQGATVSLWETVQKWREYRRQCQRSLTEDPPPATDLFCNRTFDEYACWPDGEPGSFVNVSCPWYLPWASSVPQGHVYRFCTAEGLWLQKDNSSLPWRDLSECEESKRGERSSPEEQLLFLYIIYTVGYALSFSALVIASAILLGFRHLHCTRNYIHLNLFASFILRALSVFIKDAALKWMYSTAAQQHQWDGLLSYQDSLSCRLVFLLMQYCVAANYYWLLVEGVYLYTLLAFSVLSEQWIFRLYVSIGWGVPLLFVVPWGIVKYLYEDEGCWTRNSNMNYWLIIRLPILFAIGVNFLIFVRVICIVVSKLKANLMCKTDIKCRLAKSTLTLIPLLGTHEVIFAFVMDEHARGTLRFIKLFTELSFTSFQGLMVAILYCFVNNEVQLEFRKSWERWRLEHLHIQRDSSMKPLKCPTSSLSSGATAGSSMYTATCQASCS

human GIP receptor [3] = molecular target: T1, human GIP receptor; assay: In vitro cellular cAMP assay for GIP receptor efficacy (human adipocytes); format: cell-based; settings: for Emax: read-out: hGIPR Emax
Procedure: For this, one vial of human preadipocytes (˜10^6 cells; Lonza) was thawed in a T-75 cell culture dish. The cells were cultivated at 37° C., 5% CO2, 95% humidity in Preadipocyte Growth Medium with Supplement Mix from Promo Cell.
After 3 days, the cells were washed with PBS and 1.5 ml Trypsin, incubated for 4 min, then resuspended in medium, centrifugated for 10 min @ 300 rcf RT, resuspended again and distributed to four T-75 cell culture dishes. Again, the cells were cultivated at 37° C., 5% CO2, 95% humidity.
After 5 days, the cells were washed with PBS and 1.5 ml Trypsin, incubated for 4 min, then resuspended in medium, centrifugated for 10 min @ 300 rcf RT, resuspended again and sawn in T-75 dishes (2.5×10^6 cells per dish) in 15 ml Differentiation medium each.
The differentiation medium had the following composition: DMEM (Gibco), Ham's F10 (Gibco), 15 mM HEPES (Gibco), 3% FCS (PAA), 33 μM biotin (Sigma-Aldrich), 17 μM Pantothenate (Sigma-Aldrich), 0.1 μM human insulin (Sigma-Aldrich), 1 μM dexamethason (Sigma-Aldrich), 0.1 μM PPARgamma agonist (#R2408, Sigma-Aldrich), 0.6×Anti-Anti (#15240, ThermoFisher), 200 μM IBMX (AppliChem), and 0.01 μM L-thyroxine (Sigma-Aldrich).
After 6 days of differentiation, 5000 cells per well were dispensed on a 96-well plate (#CLS3694 from Corning®, Sigma-Aldrich). For measurement of cAMP generation, 25 μL of test compound was added to each well of the 96-well plate, followed by incubation for 30 min at room temperature.
The cAMP generated following test compound stimulation was determined using a kit from Cisbio Corp. based on HTRF (Homogenous Time Resolved Fluorescence). The cAMP assay was performed according to manufacturer's instructions (Cisbio).
The cAMP content of cells was determined using a kit from Cisbio Corp. based on HTRF (Homogenous Time Resolved Fluorescence).
After addition of HTRF reagents diluted in lysis buffer (kit components), the plates were incubated for 1 h, followed by measurement of the fluorescence ratio at 665/620 nm.

[4] = molecular target: T2, human GIP receptor (hGIPR); assay: Binding assay, displacement of [125I]GIP from HEK-293 membranes over-expressing GIPR (SPA); settings: [125I]GIP displacement
Procedure: (1) Preparation of Membranes from HEK-293 Cells Over-Expressing GIPR or GLP-1R
HEK-293 cells recombinantly over-expressing GIPR or GLP-1R were grown to 50% confluency, washed with warm 1×PBS (Gibco) and detached in HEPES/EDTA-buffer (100 mM HEPES pH 7.5, 5 mM EDTA). Cells were harvested by centrifugation at 4° C. and 3000×g and the pellets were stored at −80° C. until further processing.
After thawing on ice, pellets were resuspended in HEPES/EDTA-buffer and homogenized on ice for 1 min using Ultra-Turray T25. After subsequent sonification the cell debris was removed by centrifugation at 1000×g and 4° C. Supernatants were then ultra-centrifuged at 100000×g and 4° C. under vacuum for 30 min. Pellets were resuspended in HEPES/EDTA/NaCl-buffer (20 mM HEPES, 1 mM EDTA, 150 mM NaCl; add 1 Complete Mini Protease inhibitor cocktail to 10 ml buffer) and protein content was determined via BCA-Protein assay.
(2) Measurement of Binding Activity of Test Compounds to Human GIPR or GLP-1R

human GIP receptor [5] = molecular target: T3, human GIP receptor; assay: cell-based or functional assay

| Molecule | solubility [1] | EC50 [2] | EC50 (human GIP receptor [3]; read-out: hGIPR EC50) | Emax (human GIP receptor [3]) | IC50 [4] | EC50 hGIPR 0% HSA (cAMP, HEK-293) (human GIP receptor [5]) | EC50 hGIPR 0.1% BSA (cAMP, HEK-293) (human GIP receptor [5]) |
| --- | --- | --- | --- | --- | --- | --- | --- |
| CC[C@H](C)[C@H](NC(=O)[C@H](CCCNC(=N)N)NC(=O)[C@H](CC(=O)O)NC(=O)[C@H](CCCCNC(=O)COCCOCCNC(=O)COCCOCCNC(=O)CC[C@H](NC(=O)CCCCCCCCCCCCCCCCC(=O)O)C(=O)O)NC(=O)C(C)(C)NC(=O)[C@@H](NC(=O)[C@H](CO)NC(=O)[C@H](CC(C)C)NC(=O)[C@H](CC(=O)O)NC(=O)[C@H](CO)NC(=O)[C@@H](NC(=O)[C@@](C)(CC)NC(=O)[C@@H](NC(=O)CNC(=O)[C@H](CCC(=O)O)NC(=O)C(C)(C)NC(=O)[C@@H](N)Cc1ccc(O)cc1)[C@@H](C)O)[C@@H](C)CC)[C@@H](C)CC)C(=O)N[C@@H](Cc1c[nH]cn1)C(=O)N[C@@H](CCC(N)=O)C(=O)NC(C)(C)C(=O)N[C@@H](CCC(=O)O)C(=O)N[C@@H](Cc1ccccc1)C(=O)N[C@H](C(=O)N[C@@H](CCC(=O)O)C(=O)N[C@@H](Cc1c[nH]c2ccccc12)C(=O)N[C@@H](CC(C)C)C(=O)N[C@@H](CC(C)C)C(=O)N[C@@H](C)C(=O)N[C@@H](CCC(N)=O)C(=O)NCC(=O)N1CCC[C@H]1C(=O)N[C@@H](CO)C(=O)N[C@@H](CO)C(=O)NCC(=O)N[C@@H](C)C(=O)N1CCC[C@H]1C(=O)N1CCC[C@H]1C(=O)N1CCC[C@H]1C(=O)N[C@@H](CO)C(N)=O)[C@@H](C)CC [SEQ ID NO: 23, H2N-Y-Aib-E-G-T-Iva-I-S-D-L-S-I-Aib-K[{AEEA}2-gGlu-C18OH]-D-R-I-H-Q-Aib-E-F-I-E-W-L-L-A-Q-G-P-S-S-G-A-P-P-P-S-NH2] (H-Y[Aib]EGT[dIva]ISDLSI[Aib]K([AEEA-AEEA-γGlu-C18 diacid])DRIHQ[Aib]EFIEWLLAQGPSSGAPPPS-NH2) | 6500 µg/mL (≈ 1320 µM) | > 10 nM | 0.2 nM | 91% | 0.2 nM | – | – |
| CC[C@H](C)[C@H](NC(=O)[C@H](Cc1ccccc1)NC(=O)[C@H](CCC(=O)O)NC(=O)[C@H](CCC(=O)O)NC(=O)[C@H](CCC(N)=O)NC(=O)[C@H](Cc1c[nH]cn1)NC(=O)[C@@H](NC(=O)[C@H](CCCNC(=N)N)NC(=O)[C@H](CC(=O)O)NC(=O)[C@H](CCCCNC(=O)COCCOCCNC(=O)COCCOCCNC(=O)CC[C@H](NC(=O)CCCCCCCCCCCCCCCCC(=O)O)C(=O)O)NC(=O)C(C)(C)NC(=O)[C@@H](NC(=O)[C@H](CO)NC(=O)[C@H](CC(C)C)NC(=O)[C@H](CC(=O)O)NC(=O)[C@H](CO)NC(=O)[C@@H](NC(=O)C(C)(CC)NC(=O)[C@@H](NC(=O)CNC(=O)[C@H](CCC(=O)O)NC(=O)C(C)(C)NC(=O)[C@@H](N)Cc1ccc(O)cc1)[C@@H](C)O)[C@@H](C)CC)[C@@H](C)CC)[C@@H](C)CC)C(=O)N[C@@H](CCC(=O)O)C(=O)N[C@@H](Cc1c[nH]c2ccccc12)C(=O)N[C@@H](CC(C)C)C(=O)N[C@@H](CC(C)C)C(=O)N[C@@H](C)C(=O)N[C@@H](CCC(N)=O)C(=O)NCC(=O)N1CCC[C@H]1C(=O)N[C@@H](CO)C(=O)N[C@@H](CO)C(=O)NCC(=O)N[C@@H](C)C(=O)N1CCC[C@H]1C(=O)N1CCC[C@H]1C(=O)N1CCC[C@H]1C(=O)N[C@@H](CO)C(N)=O (stereo partly drawn) [SEQ ID NO: 24, H2N-Y-Aib-E-G-T-Iva-I-S-D-L-S-I-Aib-K[{AEEA}2-gGlu-C18OH]-DRIHQEEFIEWLLAQGPSSGAPPPS-NH2] (H-Y[Aib]EGT[ξIva]ISDLSI[Aib]K([AEEA-AEEA-γGlu-C18 diacid])DRIHQEEFIEWLLAQGPSSGAPPPS-NH2) | 7800 µg/mL (≈ 1570 µM) | – | – | 100% | – | – | – |
| B1 | – | – | – | – | – | 0.00022 nM | 0.0644 nM |
